Source: patent publication US10563263B2, “Genetic polymorphisms associated with statin response and cardiovascular diseases, methods of detection and uses thereof” (CELERA CORPORATION, priority 2010, dated 2020)

System: CHD (death from CHD, nonfatal MI, or revascularization)
Assay: WOSCOPS: SNP by pravastatin treatment interaction, logistic regression (synergy index), CHD endpoint
Type: in vivo, human
Conditions: for OR (synergy index): WOSCOPS
From the text: CARE was a secondary prevention trial and WOSCOPS was a primary prevention trial.
The CHD endpoint was defined in the analyses herein of CARE as a composite endpoint of fatal CHD, definite non-fatal MI, or revascularization, and was defined in the analyses herein of WOSCOPS as a composite endpoint of death from CHD, nonfatal MI, or revascularization. In both the CARE and WOSCOPS analyses herein, the CVD endpoint was defined as a composite endpoint of CHD or stroke. […] Revascularization, which can include percutaneous transluminal coronary angioplasty (PTCA), stent placement, and coronary artery bypass graft (CABG), are medical interventions that indicate the presence of CHD.
Cohort and case-only study designs were used to identify SNPs associated with response to statin treatment.
For each SNP, a logistic regression model having treatment status as the dependent variable and SNP as the independent predictor variable was performed, with terms for age, sex and race included in the model as covariates. The anti-log of the regression coefficient corresponding to the SNP is an estimate of the synergy index (SI) (Davis et al., “Imputing gene-treatment interactions when the genotype distribution is unknown using case-only and putative placebo analyses-a new method for the Genetics of Hypertension Associated Treatment (GenHAT) study”, Statistics in Medicine 23: (2004), pages 2413-2427). The SI is a ratio of odds ratios: for example in the CARE and WOSCOPS studies, the SI represents the factor by which the odds-ratio of statin treatment, compared with placebo, among major homozygous individuals is multiplied by in order to obtain the odds-ratio of treatment vs. placebo among heterozygous individuals; and multiplied by a second time to obtain the odds-ratio of treatment vs. placebo in minor homozygous individuals. The case-only study design results in a valid estimate of the SI under the assumption that genotype and treatment are independent in the population. In a randomized clinical trial, genotype and treatment are independent by design. The p-value for the regression coefficient corresponding to the SNP results from a test of the null hypothesis that the regression coefficient is equal to zero (SI is equal to one) and thus small p-values indicate the SI is unlikely equal to one and that the effect of treatment likely differs by genotype. […]

Structure (SMILES): CC[C@H](C)C(=O)O[C@H]1C[C@H](O)C=C2C=C[C@H](C)[C@H](CC[C@@H](O)C[C@@H](O)CC(=O)O)[C@H]21 [Pravastatin, pravastatin]
- WOSCOPS OR (rs4726711, source CaseOnly, model add, endpoint CHD): 0.62
- OR (synergy index) (rs4736802 allele G, DOM model, Imputed): 1.614
- OR (synergy index) (rs4760785 allele A, ADD model, Imputed): 0.7714
- OR (synergy index) (rs4760785 allele A, DOM model, Imputed): 0.5986
- OR (synergy index) (rs4760894 allele T, ADD model, Imputed): 0.7714
- OR (synergy index) (rs4760894 allele T, DOM model, Imputed): 0.5986
- OR (synergy index) (rs4760895 allele A, ADD model, Imputed): 0.7714
- OR (synergy index) (rs4760895 allele A, DOM model, Imputed): 0.5986
- OR (synergy index) (rs4764738 allele A, ADD model, Imputed): 1.555
- OR (synergy index) (rs4764974 allele T, ADD model, Imputed): 1.512
- OR (synergy index) (rs4798366 allele G, REC model, Imputed): 2.304
- WOSCOPS OR (rs4830819, source CaseOnly, model add, endpoint CHD): 0.66
- OR (synergy index) (rs4836502 allele T, DOM model, Imputed): 0.6887
- OR (synergy index) (rs4836507 allele C, DOM model, Imputed): 0.6884
- OR (synergy index) (rs4836744 allele A, ADD model, Imputed): 0.7704
- OR (synergy index) (rs4836744 allele A, DOM model, Imputed): 0.6637
- WOSCOPS OR (rs4836745, Source caseonly): 0.65
- OR (synergy index) (rs4848944 allele C, REC model, Genotyped): 0.464
- OR (synergy index) (rs4851529 allele A, DOM model, Imputed): 0.5663
- OR (synergy index) (rs4851531 allele T, DOM model, Imputed): 0.5588
- WOSCOPS OR (rs4870109, Source caseonly): 1.47
- OR (synergy index) (rs4878214 allele A, ADD model, Imputed): 0.7413
- OR (synergy index) (rs4880803 allele A, ADD model, Imputed): 0.7588
- OR (synergy index) (rs4896568 allele T, DOM model, Imputed): 0.5426
- WOSCOPS OR (rs4924215, source CaseOnly, model dom, endpoint CHD): 1.46
- OR (synergy index) (rs4938851 allele T, DOM model, Imputed): 1.301
- OR (synergy index) (rs4964416 allele C, DOM model, Imputed): 0.6799
- WOSCOPS OR (rs5750116, source cohort, model dom, endpoint CHD): 1.45
- OR (synergy index) (rs5756669 allele C, DOM model, Imputed): 1.541
- OR (synergy index) (rs6033138 allele C, ADD model, Imputed): 1.407
- OR (synergy index) (rs6033138 allele C, REC model, Imputed): 1.414
- OR (synergy index) (rs6040619 allele C, ADD model, Imputed): 1.488
- OR (synergy index) (rs6040619 allele C, REC model, Imputed): 1.688
- OR (synergy index) (rs6040625 allele T, ADD model, Imputed): 1.479
- OR (synergy index) (rs6040625 allele T, REC model, Imputed): 1.634
- OR (synergy index) (rs6040630 allele A, ADD model, Imputed): 1.42
- OR (synergy index) (rs6040630 allele A, REC model, Imputed): 1.462
- OR (synergy index) (rs6040633 allele A, ADD model, Imputed): 1.407
- WOSCOPS OR (rs6080603, source CaseOnly, model dom, endpoint CHD): 0.68
- WOSCOPS OR (rs6474228, Source caseonly): 1.83
- WOSCOPS OR (rs6491586, source CaseOnly, model dom, endpoint CHD): 1.78
- WOSCOPS OR (rs6505669, source CaseOnly, model dom, endpoint CHD): 1.37
- WOSCOPS OR (rs6585412, Source caseonly): 1.44
- WOSCOPS OR (rs6998016, Source caseonly): 9.63
- WOSCOPS OR (rs7018577, Source caseonly): 1.94
- WOSCOPS OR (rs7078016, Source caseonly): 1.44
- WOSCOPS OR (rs7193741, source cohort, model rec, endpoint CHD): 1.87
- WOSCOPS OR (rs7305949, Source caseonly): 1.74
- WOSCOPS OR (rs7332076, Source caseonly): 2.18
- WOSCOPS OR (rs7449527, Source caseonly): 1.71
- WOSCOPS OR (rs7521242, source CaseOnly, model add, endpoint CHD): 0.74
- WOSCOPS OR (rs7625204, source cohort, model add, endpoint CHD): 1.38
- WOSCOPS OR (rs7629632, source CaseOnly, model dom, endpoint CHD): 1.72
- WOSCOPS OR (rs7705993, source CaseOnly, model add, endpoint CHD): 1.44
- WOSCOPS OR (rs7742508, source cohort, model dom, endpoint CHD): 1.93
- WOSCOPS OR (rs7839562, Source caseonly): 1.63
- WOSCOPS OR (rs7916629, Source caseonly): 1.66
- WOSCOPS OR (rs9446187, source cohort, model dom, endpoint CHD): 2.05
- WOSCOPS OR (rs9859901, source CaseOnly, model add, endpoint CHD): 0.41
- WOSCOPS OR (rs10120126, source CaseOnly, model dom, endpoint CHD): 0.48
- WOSCOPS OR (rs10155047, source cohort, model add, endpoint CHD): 0.50
- WOSCOPS OR (rs10189905, source cohort, model add, endpoint CHD): 0.56
- WOSCOPS OR (rs10305439, source CaseOnly, model dom, endpoint CHD): 0.63
- WOSCOPS OR (rs10429616, source cohort, model rec, endpoint CHD): 1.54
- WOSCOPS OR (rs10497883, Source caseonly): 0.67
- WOSCOPS OR (rs10500736, source cohort, model dom, endpoint CHD): 0.52
- WOSCOPS OR (rs10774580, Source caseonly): 0.56
- WOSCOPS OR (rs10814422, source CaseOnly, model dom, endpoint CHD): 0.46
- WOSCOPS OR (rs10935907, source CaseOnly, model dom, endpoint CHD): 1.49
- WOSCOPS OR (rs10945874, Source caseonly): 1.24
- WOSCOPS OR (rs10973013, source CaseOnly, model dom, endpoint CHD): 0.48
- WOSCOPS OR (rs11138314, Source cohort): 0.59
- WOSCOPS OR (rs11148285, Source caseonly): 2.30
- WOSCOPS OR (rs11585647, Source caseonly): 0.67
- WOSCOPS OR (rs11721179, Source caseonly): 0.60
- WOSCOPS OR (rs12556591, source CaseOnly, model add, endpoint CHD): 0.66
- WOSCOPS OR (rs13126170, Source caseonly): 0.78
- WOSCOPS OR (rs13129010, Source caseonly): 1.90
- WOSCOPS OR (rs13137776, source CaseOnly, model add, endpoint CHD): 0.62
- WOSCOPS OR (rs13279522, source cohort, model add, endpoint CHD): 0.63
- WOSCOPS OR (rs13318232, source CaseOnly, model dom, endpoint CHD): 0.40
- WOSCOPS OR (rs13431868, source CaseOnly, model dom, endpoint CHD): 1.42
- WOSCOPS OR (rs16885715, Source caseonly): 1.58
- WOSCOPS OR (rs17002013, Source caseonly): 1.66
- WOSCOPS OR (rs17076974, source cohort, model add, endpoint CHD): 1.32
- WOSCOPS OR (rs17138705, source CaseOnly, model add, endpoint CHD): 0.70
- WOSCOPS OR (rs17688430, Source caseonly): 0.71
- WOSCOPS OR (rs17706237, source CaseOnly, model dom, endpoint CHD): 1.52
